Here are results for three compounds from patent US20260294874A1, “COMPOSITIONS COMPRISING MODULATORS OF RIBONUCLEOPROTEIN GRANULE FORMATION AND DISSOLUTION AND METHODS OF USE THEREOF” (University of Virginia Patent Foundation, priority 2023, published 2026).

The subject of this experiment is stress granules (G3BP1 foci) in HeLa cells. The experiment is described as follows: Immunofluorescence phenotypic screen for stress granules (α-G3BP1) in stressed HeLa cells. The format is cell-based. The settings on record: 2 h; for effect on SGs (in words): 25 μM; for inhibition at 25 µM: read-out: reduction/inhibition of SGs/cell. How it is done:
SuTEx compound treatments. Prior to treatments, cells were washed twice with warm phosphate-buffered saline (PBS) and exchanged with serum-free DMEM (supplemented with 1% L-glutamine) for at least 30 minutes at 37° C. with 5% CO2. Compounds were then added as 1000×DMSO stocks (10 μL for 10 cm dishes and 3 μL for 6-well dishes), plates were mixed gently, and cells were incubated for two hours. All compounds were thoroughly vortexed and sonicated for five minutes prior to addition to ensure complete solvation. For microscopy experiments, cultures were seeded at 150,000 cells in 3 mL of DMEM in 6-well THERMO SCIENTIFIC™ BIOLITE™ brand microwell plates (Catalog No. 12556004; Thermo Fisher Scientific Inc., Waltham, Massachusetts. United States of America). For collection, media was aspirated, and cells were washed once with cold PBS before scraping from plates. Cells were centrifuged at 500×g at 4° C. for 5 minutes and supernatant was removed. Cell pellets were resuspended in cold PBS (1 mL) and centrifuged at 1,400×g at 4° C. for 3 minutes. Supernatant was again removed, and pellets were then snap-frozen in liquid nitrogen and stored at −80° C. until needed.
Immunofluorescence. Immunofluorescence (IF) of HEK293T cells was performed as previously described in Ciancone et al., 2022. HeLa cells were seeded at 9.0×10^4 in a 24-well plate with 12-mm glass coverslips. The next day, the cells were treated with 25 μM SuTEx probe for 2 hours in DMEM medium without FBS. The cells were then treated with 75 μM NaAsO2 for 30 minutes and fixed with 3% paraformaldehyde in PBS for 15 minutes at room temperature (RT) and washed with PBS twice. The fixed cells were permeabilized with PBST (0.1% Triton X-100) for 15 minutes at room temperature and blocked with 5% goat serum in PBST for 30 minutes at RT. The cells were incubated with anti-G3BP1 antibody H-10 (Catalog No. sc-365338 at 1:200 dilution; Santa Cruz Biotechnology, Inc., Dallas, Texas, United States of America) for 2 hours at RT and washed with PBST (0.1% Tween-20) for 5 minutes three times. Next, cells were incubated with goat anti-mouse Alexa 594 antibody (Catalog No. 115-585-003 at 1:800 dilution; Jackson ImmunoResearch, West Grove, Pennsylvania, United States of America) for 30 minutes at RT. The cells were washed twice with PBST, stained with Hoechst 33342 (Catalog No. H3570 at […]; Thermo Fischer Scientific) in PBST for 5 minutes, and washed with PBS twice for 5 minutes. The coverslips were mounted in PROLONG™ Gold AntiFade Mountant (Catalog No. P36930, Thermo Fisher Scientific) and imaged using NIS Elements AR software and a Nikon Eclipse Ti microscope equipped with a ×100 objective and CMOS camera. […] A CellProfiler pipeline was developed to quantify the number of stress granules under each condition. Briefly, cells were recognized as blue^+ (nuclei) red^+ (G3BP1) objects, and the red^+ granules that meet the shape and size threshold were identified and counted. Cells on the border of linages were excluded from the analysis for more accurate quantification.
We used immunofluorescence (IF) detection for phenotypic screening of SuTEx compound activity on stress-induced PB and SG levels in cells (FIG. 1B). PBs were induced through glucose deprivation of HEK293T cells and detected by immunofluorescence with anti-enhancer of mRNA-decapping protein 4 (EDC4) as previously described (Kedersha & Anderson, 2007; Ciancone et al., 2022) (~4 vs 2 PBs/cell in −glucose and +glucose conditions, respectively; FIG. 8). EDC4 is an established PB marker for mammalian cells and is important for PB formation (Kedersha & Anderson, 2007; Luo et al., 2018). SGs were induced in HeLa cells by [COMPOUND LEFT OUT] treatments and detected by fluorescent staining with anti-Ras GTPase-activating protein-binding protein 1 (G3BP1) antibody (75 μM [COMPOUND LEFT OUT], 30 min; FIG. 9). G3BP1 foci have been used in previous IF studies to identify SGs in cells (Kedersha & Anderson, 2007). […]

Entries after “also recorded” stand apart in the source; their conditions may differ. Where only a bound is given, the exact number is not on record here.

On to `CC(C)c1cc(C(C)C)c(S(=O)(=O)n2cc(-c3ccc(C(F)(F)F)cc3)nn2)c(C(C)C)c1` [AHL-003], for which the “effect on SGs (in words)” value is “block both types of RNP granules; also recorded: inhibited”. Besides, for the setting “Homo sapiens”, the inhibition at 25 µM was over 70%.
`COc1ccc(S(=O)(=O)n2cc(CS(C)(=O)=O)nn2)cc1` [AHL-030, 1-((4-Methoxyphenyl)sulfonyl)-4-((methylsulfonyl)methyl)-1H-1,2,3-triazole]: the “effect on SGs (in words)” value is reported as “SG enhancer; also recorded: SG-enhancing; also recorded: enhance SGs; also recorded: increased SGs”. For the same compound, the fold induction at 25 µM (Homo sapiens, read-out: increase in SGs per cell) was about 2.
As to `COc1ccc(S(=O)(=O)n2cc(C3CCCCC3)nn2)cc1` [HHS-166, 4-Cyclohexyl-1-((4-methoxyphenyl)sulfonyl)-111-1,2,3-triazole], the “effect on SGs (in words)” value was “moderate, but statistically significant inhibitory activity; also recorded: enriched activity; also recorded: inhibits SG assembly; also recorded: inhibited SGs”. Further, the inhibition at 25 µM (Homo sapiens) is about 50%.
